{
  "source": "patent US10479770B2",
  "about": "“Phosphatidylinositol 3-kinase inhibitors” (Gilead Sciences, Inc., priority 2016, dated 2019)",
  "note": "pIC50: −log10 of the molar value.",
  "data": [
    {"biological_target": "T1, PI3Kβ (Homo sapiens, UniProt P42338)", "T1 construct": "made in house", "T1 sequence (P42338 whole entry, canonical isoform)": "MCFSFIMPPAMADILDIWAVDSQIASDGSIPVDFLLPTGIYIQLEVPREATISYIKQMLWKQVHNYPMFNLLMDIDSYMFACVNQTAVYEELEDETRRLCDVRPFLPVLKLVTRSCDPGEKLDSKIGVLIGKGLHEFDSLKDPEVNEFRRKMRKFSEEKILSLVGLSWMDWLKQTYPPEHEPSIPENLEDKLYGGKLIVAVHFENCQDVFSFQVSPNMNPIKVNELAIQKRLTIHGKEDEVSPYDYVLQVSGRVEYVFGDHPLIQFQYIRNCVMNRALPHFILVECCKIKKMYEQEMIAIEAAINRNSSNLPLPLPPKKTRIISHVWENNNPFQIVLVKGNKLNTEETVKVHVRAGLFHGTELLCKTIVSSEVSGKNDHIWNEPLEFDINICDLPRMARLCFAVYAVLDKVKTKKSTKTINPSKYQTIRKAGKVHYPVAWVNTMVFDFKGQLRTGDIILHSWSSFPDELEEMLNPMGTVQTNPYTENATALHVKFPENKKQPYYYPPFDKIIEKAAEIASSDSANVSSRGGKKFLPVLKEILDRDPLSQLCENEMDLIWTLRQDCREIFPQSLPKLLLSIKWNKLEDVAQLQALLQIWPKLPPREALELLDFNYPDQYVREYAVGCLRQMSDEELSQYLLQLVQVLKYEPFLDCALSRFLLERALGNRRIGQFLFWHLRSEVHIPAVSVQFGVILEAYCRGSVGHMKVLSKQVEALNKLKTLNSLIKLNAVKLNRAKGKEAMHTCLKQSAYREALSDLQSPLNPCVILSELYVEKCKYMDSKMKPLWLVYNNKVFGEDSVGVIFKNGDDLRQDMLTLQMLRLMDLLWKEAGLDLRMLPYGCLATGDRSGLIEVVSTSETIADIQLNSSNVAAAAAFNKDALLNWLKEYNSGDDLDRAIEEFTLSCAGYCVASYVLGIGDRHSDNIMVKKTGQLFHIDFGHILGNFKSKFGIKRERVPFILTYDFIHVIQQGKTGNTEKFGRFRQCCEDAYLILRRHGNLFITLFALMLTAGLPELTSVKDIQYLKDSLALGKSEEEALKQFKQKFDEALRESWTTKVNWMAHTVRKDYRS", "T1 sequence (P27986 whole entry partner, canonical isoform)": "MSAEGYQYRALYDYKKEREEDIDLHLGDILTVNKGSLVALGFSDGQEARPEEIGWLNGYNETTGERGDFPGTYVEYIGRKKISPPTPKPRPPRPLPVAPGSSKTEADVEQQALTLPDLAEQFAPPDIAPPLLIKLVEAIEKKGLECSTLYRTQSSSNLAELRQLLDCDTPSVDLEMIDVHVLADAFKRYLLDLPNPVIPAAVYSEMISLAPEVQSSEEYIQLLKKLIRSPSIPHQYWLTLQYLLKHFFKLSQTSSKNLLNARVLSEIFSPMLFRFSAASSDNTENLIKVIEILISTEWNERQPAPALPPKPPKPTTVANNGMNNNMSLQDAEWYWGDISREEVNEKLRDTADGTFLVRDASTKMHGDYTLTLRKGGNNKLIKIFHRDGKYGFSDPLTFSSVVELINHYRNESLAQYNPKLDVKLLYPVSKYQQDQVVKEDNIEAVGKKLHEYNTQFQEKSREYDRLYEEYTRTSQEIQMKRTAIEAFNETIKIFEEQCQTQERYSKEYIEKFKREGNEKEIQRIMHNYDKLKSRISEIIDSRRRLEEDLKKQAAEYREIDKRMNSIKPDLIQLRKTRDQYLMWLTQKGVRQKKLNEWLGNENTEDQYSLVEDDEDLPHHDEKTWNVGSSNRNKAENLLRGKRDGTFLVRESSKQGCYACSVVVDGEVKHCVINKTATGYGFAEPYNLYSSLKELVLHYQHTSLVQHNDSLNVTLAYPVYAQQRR", "assay": "TR-FRET enzymatic activity assay against PI3K isoforms", "type": "biochemical", "conditions": "2×Km ATP, 2 μM PIP2, 30 minutes at 25° C., recombinant heterodimeric PI3Kβ 25-50 pM, read-out: IC50-PIP-Beta", "protocol": "The compounds of formula (I) were characterized for their enzymatic activity against the PI3K isoforms. The activities were measured using a time-resolved fluorescence resonance energy transfer (TR-FRET) assay. TR-FRET monitored the formation of 3,4,5-inositol triphosphate molecule that competed with fluorescently labeled PIPS for binding to the GRP-1 pleckstrin homology domain protein.\nClass I PI3K isoforms were expressed and purified as heterodimeric recombinant proteins. All assay reagents and buffers for the TR-FRET assay were purchased from Millipore. […] The compounds were added to the assay solution and incubated for 30 minutes at 25° C. The reactions were terminated with a final concentration of 10 mM EDTA, 10 nM labeled-PIPS, and 35 nM Europium labeled GRP-1 detector protein before reading TR-FRET on an Envision plate reader (Ex: 340 nm; Em: 615/665 nm; 100 μs delay and 500 μs read window).\nThe results were normalized based on positive (1 μM wortmanin) and negative (DMSO) controls, and the IC50 values for PI3K α, β, δ, and γ were calculated from the fit of the dose-response curves to a four-parameter equation. These assays generally produced results within 3-fold of the reported mean.", "values": [
      {"smiles": "Cc1nc2c(C(N)=O)cc(N3CCOCC3)cc2n1-c1ccc(F)c2ccccc12", "note": "[Compound 4-1, 1-(4-fluoronaphthalen-1-yl)-2-methyl-6-morpholino-1H-benzo[d]imidazole-4-carboxamide]", "pIC50": 7.06},
      {"smiles": "Cc1nc2c(C(N)=O)cc(N3CCOCC3)cc2n1-c1cccc2c(F)cccc12", "note": "[Compound 4-4, 1-(5-fluoronaphthalen-1-yl)-2-methyl-6-morpholin-4-ylbenzimidazole-4-carboxamide]", "pIC50": 7.89},
      {"smiles": "O=C(O)c1cc(N2CCOCC2)cc2c1ncn2-c1cccc2ccccc12", "note": "[Compound 3-1, 6-morpholin-4-yl-1-naphthalen-1-ylbenzimidazole-4-carboxylic acid]", "pIC50": "< 5.00"},
      {"smiles": "Cc1nc2c(-c3nnc[nH]3)cc(N3CCOCC3)cc2n1-c1ccc2ccccc2c1", "note": "[Compound 5-10, 4-(2-methyl-1-(naphthalen-2-yl)-4-(4H-1,2,4-triazol-3-yl)-1H-benzo[d]imidazol-6-yl)morpholine]", "pIC50": 7.42},
      {"smiles": "Cc1nnc(-c2cc(N3CCOCC3)cc3c2nc(C)n3-c2cc3ccccc3cn2)[nH]1", "note": "[Compound 5-15, 4-(1-(isoquinolin-3-yl)-2-methyl-4-(5-methyl-4H-1,2,4-triazol-3-yl)-1H-benzo[d]imidazol-6-yl)morpholine]", "pIC50": 5.47},
      {"smiles": "Cc1nc2c(-c3nnc[nH]3)cc(N3CCOCC3)cc2n1-c1cnc2cccc(Cl)c2c1", "note": "[Compound 5-8, 4-(1-(5-chloroquinolin-3-yl)-2-methyl-4-(4H-1,2,4-triazol-3-yl)-1H-benzo[d]imidazol-6-yl)morpholine]", "pIC50": 7.55},
      {"smiles": "CCCc1nc2c(-c3nnc[nH]3)cc(N3CCOCC3)cc2n1-c1cccc2c(F)cccc12", "note": "(single isomer, unassigned) [Compound 6-2, 4-[3-(5-fluoronaphthalen-1-yl)-2-propyl-7-(4H-1,2,4-triazol-3-yl)benzimidazol-5-yl]morpholine]", "pIC50": 8.52},
      {"smiles": "Cc1nnc(-c2cc(N3CCOCC3)cc3c2nc(C)n3-c2ccc(F)c3ccccc23)[nH]1", "note": "[Compound 5-2, 4-[3-(4-fluoronaphthalen-1-yl)-2-methyl-7-(5-methyl-4H-1,2,4-triazol-3-yl)benzimidazol-5-yl]morpholine]", "pIC50": 7.37},
      {"smiles": "Cc1nc2c(C(=O)O)cc(N3CCOCC3)cc2n1-c1cccc2ccccc12", "note": "[Compound 3-2, 2-methyl-6-morpholin-4-yl-l-naphthalen-1-ylbenzimidazole-4-carboxylic acid]", "pIC50": 5.74},
      {"smiles": "COC(=O)c1cc(N2CCOCC2)cc2c1ncn2-c1cccc2ccccc12", "note": "[Compound 2-2, methyl 6-morpholin-4-yl-1-naphthalen-1-ylbenzimidazole-4-carboxylate]", "pIC50": 6.64},
      {"smiles": "Cc1nc2c(-c3nnc[nH]3)cc(N3CCOCC3)cc2n1-c1ccc(F)c2ccccc12", "note": "[Compound 5-1, 4-(1-(4-fluoronaphthalen-1-yl)-2-methyl-4-(4H-1,2,4-triazol-3-yl)-1H-benzo[d]imidazol-6-yl)morpholine]", "pIC50": 8.05},
      {"smiles": "CCCc1nc2c(-c3nnc[nH]3)cc(N3CCOCC3)cc2n1-c1cccc2c(F)cccc12", "note": "(single isomer, unassigned) [Compound 6-1, 4-[3-(5-fluoronaphthalen-1-yl)-2-propyl-7-(4H-1,2,4-triazol-3-yl)benzimidazol-5-yl]morpholine]", "pIC50": 7.38},
      {"smiles": "Cc1nc2c(-c3nnc[nH]3)cc(N3CCOCC3)cc2n1-c1cc2ccccc2cn1", "note": "[Compound 5-14, 4-(1-(isoquinolin-3-yl)-2-methyl-4-(4H-1,2,4-triazol-3-yl)-1H-benzo[d]imidazol-6-yl)morpholine]", "pIC50": 6.24},
      {"smiles": "Cc1nc2c(-c3nnc[nH]3)cc(N3CCOCC3)cc2n1-c1cnc2ccccc2c1", "note": "[Compound 5-6, 4-(2-methyl-1-(quinolin-3-yl)-4-(4H-1,2,4-triazol-3-yl)-1H-benzo[d]imidazol-6-yl)morpholine]", "pIC50": 6.14},
      {"smiles": "Cc1nc2c(-c3nnc[nH]3)cc(N3CCOCC3)cc2n1-c1cnc2c(Cl)cccc2c1", "note": "[Compound 5-7, 4-(1-(8-chloroquinolin-3-yl)-2-methyl-4-(4H-1,2,4-triazol-3-yl)-H-benzo[d]imidazol-6-yl)morpholine]", "pIC50": 6.72},
      {"smiles": "Fc1cccc2c(-n3cnc4c(-c5nnc[nH]5)cc(N5CCOCC5)cc43)cccc12", "note": "[Compound 5-12, 4-[3-(5-fluoronaphthalen-1-yl)-7-(4H-1,2,4-triazol-3-yl)benzimidazol-5-yl]morpholine]", "pIC50": 8.70},
      {"smiles": "CCc1nc2c(-c3nnc[nH]3)cc(N3CCOCC3)cc2n1-c1ccc2ccccc2n1", "note": "[Compound 5-9, 4-(2-ethyl-1-(quinolin-2-yl)-4-(4H-1,2,4-triazol-3-yl)-1H-benzo[d]imidazol-6-yl)morpholine]", "pIC50": 6.66},
      {"smiles": "Cc1nc2c(-c3nnc[nH]3)cc(N3CCOCC3)cc2n1-c1cnc2cc(Cl)ccc2c1", "note": "[Compound 5-5, 4-(1-(7-chloroquinolin-3-yl)-2-methyl-4-(4H-1,2,4-triazol-3-yl)-1H-benzo[d]imidazol-6-yl)morpholine]", "pIC50": 5.92},
      {"smiles": "CCCc1nc2c(-c3nnc[nH]3)cc(N3CCOCC3)cc2n1-c1cccc2c(F)cccc12", "note": "[Compound 5-11, 4-[3-(5-fluoronaphthalen-1-yl)-2-propyl-7-(4H-1,2,4-triazol-3-yl)benzimidazol-5-yl]morpholine]", "pIC50": 8.22},
      {"smiles": "Cc1nc2c(C(N)=O)cc(N3CCOCC3)cc2n1-c1cnc2cccc(Cl)c2c1", "note": "[Compound 4-3, 1-(5-chloroquinolin-3-yl)-2-methyl-6-morpholino-lH-benzo[d]imidazole-4-carboxamide]", "pIC50": 6.41},
      {"smiles": "Cc1nc2c(-c3nnc[nH]3)cc(N3CCOCC3)cc2n1-c1cccc2c(F)cccc12", "note": "[Compound 5-13, 4-[3-(5-fluoronaphthalen-1-yl)-2-methyl-7-(4H-1,2,4-triazol-3-yl)benzimidazol-5-yl]morpholine]", "pIC50": 8.30},
      {"smiles": "CCOC(=O)c1nc2c(C(=O)OC)cc(N3CCOCC3)cc2n1-c1cccc2ccccc12", "note": "[Compound 2-3, 2-O-ethyl 4-O-methyl 6-morpholin-4-yl-1-naphthalen-1-ylbenzimidazole-2,4-dicarboxylate]", "pIC50": 6.15},
      {"smiles": "Cc1nc2c(-c3nnc[nH]3)cc(N3CCOCC3)cc2n1-c1cnc2ccc(Cl)cc2c1", "note": "[Compound 5-3, 4-(1-(6-chloroquinolin-3-yl)-2-methyl-4-(4H-1,2,4-triazol-3-yl)-1H-benzo[d]imidazol-6-yl)morpholine]", "pIC50": 5.38},
      {"smiles": "CCc1nc2c(-c3nnc[nH]3)cc(N3CCOCC3)cc2n1-c1cnc2ccccc2c1", "note": "[Compound 5-4, 4-(2-ethyl-1-(quinolin-3-yl)-4-(4H-1,2,4-triazol-3-yl)-lH-benzo[d]imidazol-6-yl)morpholine]", "pIC50": 5.92},
      {"smiles": "COC(=O)c1cc(N2CCOCC2)cc2c1nc(C)n2-c1cccc2ccccc12", "note": "[Compound 2-1, methyl 1-(naphthalen-1-yl)-2-methyl-6-morpholino-1H-benzo[d]imidazole-4-carboxylate]", "pIC50": 6.85},
      {"smiles": "Cc1nc2c(C(N)=O)cc(N3CCOCC3)cc2n1-c1cnc2c(Cl)cccc2c1", "note": "[Compound 4-2, 1-(8-chloroquinolin-3-yl)-2-methyl-6-morpholino-1H-benzo[d]imidazole-4-carboxamide]", "pIC50": 5.64}
    ]}
  ]
}
